Test results taken from doi:10.1101/2020.03.04.976639v2 (biorxiv, 2020).

Legend:
[1] = molecular target: T1, PaThiL (P. aeruginosa thiamine monophosphate kinase, ThiL) (Pseudomonas aeruginosa, UniProt Q9HWX7); assay: luminescent kinase assay; type: biochemical
T1 sequence (Q9HWX7 1-322): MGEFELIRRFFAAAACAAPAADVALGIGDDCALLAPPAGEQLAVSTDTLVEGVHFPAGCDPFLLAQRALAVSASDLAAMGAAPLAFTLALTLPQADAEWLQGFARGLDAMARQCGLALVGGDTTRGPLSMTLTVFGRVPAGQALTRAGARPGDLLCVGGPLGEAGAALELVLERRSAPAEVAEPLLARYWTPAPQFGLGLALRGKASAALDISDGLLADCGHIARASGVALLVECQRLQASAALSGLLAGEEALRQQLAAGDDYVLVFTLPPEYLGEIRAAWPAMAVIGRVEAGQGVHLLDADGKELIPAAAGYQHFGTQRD

[2] = molecular target: T1, PaThiL (P. aeruginosa thiamine monophosphate kinase, ThiL); assay: luminescent kinase assay; type: biochemical; conditions: random Bi-Bi fit; TMP 0.78-50 µM; 50 mM Tris-HCl pH 8.0, 5 mM MgCl2, 350 mM KCl

O=C(O)Cc1c[nH]c2ccc(O)cc12 [5-hydroxyindolacetic acid]
Ki [1]: 114 ± 27 µM

Nc1ncnc2c1ncn2[C@@H]1O[C@H](COP(=O)(O)OP(=O)(O)OP(=O)(O)O)[C@@H](O)[C@H]1O [ATP]
Km [2]: 111 ± 8 µM
